Measured values taken from publication PMC11506018, “Targeting PARP-1 and DNA Damage Response Defects in Colorectal Cancer Chemotherapy with Established and Novel PARP Inhibitors” (Cancers, 2024).
Values joined by “and” are separate entries in the source; they are usually repeats but may differ in a detail not shown here. Equal entries are not always repeated. Where two headings read alike, the source gives them in different places. Each block holds one molecule with its values, some of them ahead of it.

Legend:
[1] = tested on: HCT116 WT cells; assay: cell viability, resazurin reduction assay, HCT116 WT; details: for IC50: read-out: IC50-values HCT116 WT
Method: (§1) To assess the cytotoxicity of newly developed PARP inhibitors, cells were cultivated in translucent 96-well plates overnight and treated with PARP inhibitors or cytostatic drugs for 72 h. […] Cell viability was assessed by the resazurin reduction assay (RRA) as described previously [41], and fluorescence was measured using a Spark® Multi-well reader (Tecan, Crailsheim, Germany). IC50 values were calculated using GraphPad Prism 9.0 software (GraphPad Software Inc., Boston, MA, USA). To this end, concentrations were transformed into the log scale, plotted against the cell viability and the curve was fitted by nonlinear regression with variable slope, providing the IC50 values.

[2] = tested on: HCT116 BRCA2−/− cells; assay: cell viability, resazurin reduction assay, HCT116 BRCA2-/-; details: for IC50: read-out: IC50-values HCT116 BRCA2−/−
Method: (§2) To assess the cytotoxicity of newly developed PARP inhibitors, cells were cultivated in translucent 96-well plates overnight and treated with PARP inhibitors or cytostatic drugs for 72 h. For the assessment of synergistic activity, cells were pretreated with the inhibitors for 2 h, before the inhibitor or cytostatic drug was added. Cell viability was assessed by the resazurin reduction assay (RRA) as described previously [41], and fluorescence was measured using a Spark® Multi-well reader (Tecan, Crailsheim, Germany). IC50 values were calculated using GraphPad Prism 9.0 software (GraphPad Software Inc., Boston, MA, USA). To this end, concentrations were transformed into the log scale, plotted against the cell viability and the curve was fitted by nonlinear regression with variable slope, providing the IC50 values.

[3] = tested on: DLD-1 ATRs/s cells; assay: cell viability, resazurin reduction assay, DLD-1 ATRs/s; details: for IC50: read-out: IC50-values DLD-1 ATRs/s
Method: as §1

[4] = tested on: Caco-2 cells; assay: cell viability, resazurin reduction assay, Caco-2; details: for IC50: Homo sapiens, read-out: IC50-values Caco-2
Method: as §2

[5] = tested on: HCT116 PARP-1+/+ cells; assay: cell viability, resazurin reduction assay, HCT116 PARP-1+/+; details: for IC50: read-out: IC50-values HCT116 PARP1+/+
Method: as §2

[6] = tested on: DLD-1 WT cells; assay: cell viability, resazurin reduction assay, DLD-1 WT; details: for IC50: read-out: IC50-values DLD-1 WT
Method: as §1

[7] = tested on: human colonic epithelial cells (HCEC); assay: cell viability, resazurin reduction assay, HCEC; details: 72 h; for IC50: read-out: IC50-values HCEC
Method: as §2

[8] = tested on: HCT116 PARP-1−/− cells; assay: cell viability, resazurin reduction assay, HCT116 PARP-1-/-; details: for IC50: read-out: IC50-values HCT116 PARP1−/−; for higher sensitivity of HCT116 PARP-1−/− than PARP-1+/+: from IC50 values of Table 1
Method: as §2

[9] = tested on: γH2AX formation in HCT116 BRCA2−/− cells; assay: γH2AX Western blot in HCT116 BRCA2-/- cells; details: IT 0.25 µM, 24 h, compared to WT
Method: (§3) Quantification of chromatin-trapped PARP-1 was performed as described elsewhere [42]. Briefly, HCT116 cells were harvested, and pellets were lysed in buffer containing 150 mM KCl, 2.5 mM MgCl2, 50 mM HEPES pH 7.8, 5 mM EDTA pH 8, 3 mM dithiothreitol (DTT), 10% glycerol, 0.5% Triton X-100, and freshly added protease inhibitor cocktail (Roche) for 15 min on ice. The chromatin-bound protein fraction was isolated by centrifugation at 4 °C for 15 min and 16.000× g. After transferring the soluble fraction, the chromatin-containing pellet was washed twice in lysis buffer and sonicated for 3 min. […] The proteins of interest were detected using a c300 chemiluminescence imager (Azure Biosystems, Dublin, CA, USA). […] The signal intensity (e.g., PARP-1 or γH2AX) of each lane was quantified and subsequently normalized to the respective loading control as indicated in the figure legends, which was analyzed in each experiment. […]

[10] = tested on: γH2AX formation in HCT116 WT cells; assay: γH2AX Western blot in HCT116 WT cells; details: X17613 50 µM or IT 0.25 µM, 24 h
Method: Quantification of chromatin-trapped PARP-1 was performed as described elsewhere [42]. Briefly, HCT116 cells were harvested, and pellets were lysed in buffer containing 150 mM KCl, 2.5 mM MgCl2, 50 mM HEPES pH 7.8, 5 mM EDTA pH 8, 3 mM dithiothreitol (DTT), 10% glycerol, 0.5% Triton X-100, and freshly added protease inhibitor cocktail (Roche) for 15 min on ice. The chromatin-bound protein fraction was isolated by centrifugation at 4 °C for 15 min and 16.000× g. After transferring the soluble fraction, the chromatin-containing pellet was washed twice in lysis buffer and sonicated for 3 min. The soluble and chromatin fractions were mixed with self-made 5× Laemmli buffer (200 mM TRIS pH 6.8, 40% glycerol, 8% SDS, 4 % ß-mercaptoethanol, 0.08% Bromphenol Blue) and incubated at 95 °C for 10 min. Samples were then separated by SDS-PAGE followed by Western blot analysis essentially as described previously [43]. For the analysis of γH2AX, cells were directly harvested in 1× Laemmli buffer, incubated at 95 °C for 5 min, and subjected to SDS-PAGE and subsequent Western blot analysis [44]. […] The proteins of interest were detected using a c300 chemiluminescence imager (Azure Biosystems, Dublin, CA, USA). Densitometric image analysis was conducted by applying the software AzureSpot version 2.0.062 (Azure Biosystems, USA). The signal intensity (e.g., PARP-1 or γH2AX) of each lane was quantified and subsequently normalized to the respective loading control as indicated in the figure legends, which was analyzed in each experiment. […]

[11] = biological target: T1, PARP-1 (Homo sapiens, UniProt P09874); assay: chemiluminescence-based PARP-1 assay kit (recombinant enzyme); details: IC50 PARP-1 screening assay kit, recombinant PARP-1, 1 h RT, n = 2
T1 sequence (P09874 whole entry): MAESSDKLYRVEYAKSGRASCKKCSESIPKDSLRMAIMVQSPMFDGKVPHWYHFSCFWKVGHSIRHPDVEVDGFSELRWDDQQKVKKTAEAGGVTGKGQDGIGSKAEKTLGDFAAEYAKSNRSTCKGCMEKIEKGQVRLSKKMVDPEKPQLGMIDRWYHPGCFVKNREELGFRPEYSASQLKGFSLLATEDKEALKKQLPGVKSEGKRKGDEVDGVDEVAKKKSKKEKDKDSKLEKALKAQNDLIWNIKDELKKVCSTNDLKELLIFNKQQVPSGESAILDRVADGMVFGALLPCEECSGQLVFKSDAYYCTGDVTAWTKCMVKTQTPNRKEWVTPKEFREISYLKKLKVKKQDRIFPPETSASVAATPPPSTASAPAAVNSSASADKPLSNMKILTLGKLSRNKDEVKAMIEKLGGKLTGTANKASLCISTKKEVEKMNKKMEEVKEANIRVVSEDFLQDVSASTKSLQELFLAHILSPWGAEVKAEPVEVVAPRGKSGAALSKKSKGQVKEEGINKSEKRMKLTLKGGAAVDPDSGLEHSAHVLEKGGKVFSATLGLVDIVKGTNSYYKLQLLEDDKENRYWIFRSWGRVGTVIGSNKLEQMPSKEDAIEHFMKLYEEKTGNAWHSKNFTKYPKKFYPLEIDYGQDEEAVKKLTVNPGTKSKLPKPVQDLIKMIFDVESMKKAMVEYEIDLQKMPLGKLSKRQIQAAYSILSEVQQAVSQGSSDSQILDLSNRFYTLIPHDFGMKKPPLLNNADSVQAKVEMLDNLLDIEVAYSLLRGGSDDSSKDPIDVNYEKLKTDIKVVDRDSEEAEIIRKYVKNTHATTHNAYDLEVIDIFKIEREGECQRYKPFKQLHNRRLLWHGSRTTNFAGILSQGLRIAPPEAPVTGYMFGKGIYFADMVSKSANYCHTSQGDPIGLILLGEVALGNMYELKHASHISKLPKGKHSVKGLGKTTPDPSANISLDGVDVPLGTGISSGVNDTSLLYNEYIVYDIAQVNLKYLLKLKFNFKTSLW
Description: Twelve compounds were screened regarding their ability to inhibit PARP-1 enzyme activity in vitro. Therefore, we utilized a chemiluminescence-based PARP-1 assay kit (BPS Bioscience, San Diego, CA, USA) and performed two independent experiments according to the manufacturer’s instructions. Briefly, non-transparent 96-well plates were coated with histones overnight. […] After adding activated DNA and biotinylated NAD^+, the ADP-ribosylation reaction was initiated by the addition of PARP-1 enzyme and incubated at RT for 1 h. Quantification of biotinylated PAR was conducted by using Streptavidin–HRP and subsequent ECL-based detection of chemiluminescence, applying a Spark® multiplate reader (Tecan, Crailsheim, Germany).

[12] = biological target: T1, PARP-1; assay: chromatin retention assay (PARP-1 trapping) in HCT116 cells; details: HCT116, MMS 1 mM 1 h with inhibitor
Method: as §3

[13] = biological target: T1, PARP-1; assay: chromatin retention assay (PARP-1 trapping) in Caco-2 cells; details: Caco-2, MMS 1 mM 1 h with inhibitor
Method: as §3

[14] = tested on: H2O2-induced PAR formation (PARP-1 activity) in HCT116 cells; assay: PAR immunofluorescence: H2O2-induced PAR formation in HCT116 cells; assay type: cell-based, human; details: for IC50: Homo sapiens, HCT-116, 2 h pretreatment, 1 mM H2O2 5 min, unit inferred, read-out: IC50 PAR formation in HCT116 cells (Figure A3A); for PAR signal: concentration of 100 nM; for PAR signal / PAR formation: H2O2-induced; for PAR formation: 10 µM / highest concentration
Method: Cells lines were re-authenticated by p53, PARP-1, ATR, and BRCA2 immunoblotting, by their characteristic differential response to genotoxic agents and their typical cell morphology. HCT116, HCT116 BRCA2^−/−, DLD-1 ATR^+/+ and DLD-1 ATR^s/s cells were maintained in DMEM, whereas HCT116 PARP-1^+/+ and HCT116 PARP-1^−/− cells were maintained in RPMI1640 containing 10% FCS and 1% penicillin/streptomycin in a humidified atmosphere at 37 °C and 5% CO2. Caco-2 cells were cultured in MEM with 10% FCS, 1% penicillin/streptomycin, and nonessential amino acids. […] The media and supplements were obtained from PAN-Biotech (Aidenbach, Germany) and Thermo Fisher Scientific (Darmstadt, Germany). Cell culture was frequently tested for contamination with mycoplasma by PCR using the Venor® GeM Classic kit (Minerva Biolabs, Berlin, Germany) and immunofluorescence microscopy with nuclear staining. […] Cells were exposed for 1 h for the quantification of PARP-1 trapping or 2 h for assessing the inhibitory potential by confocal fluorescence microscopy. […] If the PARPi treatment was conducted in combination with cytostatic drugs for 24 h (γH2AX Western blot analysis) or 72 h (cytotoxicity testing), the PARPi was added 2 h prior.
The activity of potential PARP inhibitors was tested in a cell model using immunofluorescence-based detection of PAR essentially as reported previously. HCT116 cells were seeded in Ibidi 12-well chamber slides and cultivated until they reached 70% confluence. Induction of PARylation was achieved by adding 1 mM H2O2 in PBS/1 mM MgCl2 for 5 min at 37 °C. Cells were washed with PBS/1 mM MgCl2 and fixed by adding 4% PFA at RT. After 20 min, cells were washed with PBS/100 mM glycine for 1 min and permeabilized with PBS/0.3% Triton X-100 for 3 min. Blocking of the cells was conducted by adding PBS/0.05% Tween containing 5% powdered milk for 1 h at RT. […] Cells were washed and an Alexa488-coupled secondary antibody was added for 1 h at RT. The slides were mounted with VectaShield containing DAPI and analyzed by confocal microscopy using a Zeiss Axio Observer 7 microscope (Oberkochen, Germany) equipped with a 63× oil objective (Plan-Apochromat 63×/1.40 DIC M27) and a LSM900 confocal laser scanner (Zeiss, Oberkochen, Germany). Images were analyzed using Zeiss Zen software version 3.4 and ImageJ v1.53t (NIH, Bethesda, MD, USA). Briefly, nuclei were identified based on the DAPI signal and marked as regions of interest (ROI). Subsequently, the mean PAR signal in the identified ROI was quantified in each image and exported for further analysis. For the individual experiments, the mean PAR intensity was averaged for each treatment group and the control was set to 100%. Only images with a minimum of 4 cells were included in the analysis and at least 5 images were assessed per treatment group. The experiments were conducted in at least 3 biological replicates. To derive IC50 concentrations, relative PAR levels of the experiments were transferred to GraphPad Prism 9.0 Software (GraphPad Software Inc., Boston, MA, USA) for a nonlinear regression analysis applying a three-parameter model.

Compound: O=c1[nH]cc(F)c(=O)[nH]1 [5-FU, 5-fluorouracil]
IC50 ([1]; Homo sapiens, HCT-116, 72 h): 500 nM | IC50 ([2]; Homo sapiens, HCT-116, 72 h): 340 nM | IC50 ([3]; Homo sapiens, DLD-1, 72 h): 220 nM | IC50-values Caco-2 ([4]; 72 h, RRA): - | IC50 ([5]; Homo sapiens, HCT-116, 72 h): 240 nM | IC50 ([6]; Homo sapiens, DLD-1, 72 h): 350 nM | IC50 ([7]; Homo sapiens, HCEC): 26200 nM | IC50 ([8]; Homo sapiens, HCT-116, 72 h): 150 nM | higher sensitivity of HCT116 PARP-1−/− than PARP-1+/+ [8]: less affected

Compound: CCc1c2c(nc3ccc(OC(=O)N4CCC(N5CCCCC5)CC4)cc13)-c1cc3c(c(=O)n1C2)COC(=O)[C@]3(O)CC [IT, irinotecan]
IC50 ([1]; Homo sapiens, HCT-116, 72 h): 1280 nM | γH2AX, mono-treatment [9]: slightly higher γH2AX levels | IC50 ([2]; Homo sapiens, HCT-116, 72 h): 160 nM | IC50 ([3]; Homo sapiens, DLD-1, 72 h): 2990 nM | IC50 ([4]; Caco-2, 72 h): 66500 nM | IC50 ([5]; Homo sapiens, HCT-116, 72 h): 930 nM | IC50 ([6]; Homo sapiens, DLD-1, 72 h): 4190 nM | γH2AX, mono-treatment [10]: significant induction of γH2AX | IC50 ([7]; Homo sapiens, HCEC): 2950 nM | IC50 ([8]; Homo sapiens, HCT-116, 72 h): 350 nM | higher sensitivity of HCT116 PARP-1−/− than PARP-1+/+ [8]: 2.5–3 fold

Compound: O=C1[O][Pt]2([NH][C@@H]3CCCC[C@H]3[NH]2)[O]C1=O [OXA, oxaliplatin]
IC50 ([1]; 72 h, RRA): 1190 nM | IC50 ([2]; 72 h, RRA): 250 nM | IC50 ([3]; 72 h, RRA): 9080 nM | IC50 ([5]; 72 h, RRA): 710 nM | IC50 ([6]; 72 h, RRA): 8770 nM | IC50 ([7]; RRA): 40700 nM | higher sensitivity of HCT116 PARP-1−/− than PARP-1+/+ [8]: 2.5–3 fold | IC50 ([8]; 72 h, RRA): 280 nM

Continued, in another order:

IC50 [11]: 9200 nM and 9170 nM
Compound: COC(=O)C1CC(=O)c2cccc3[nH]c(C)c1c23 (centres unmarked) [X17616]

IC50 ([1]; Homo sapiens, HCT-116, 72 h): > 50000 nM | IC50 ([2]; Homo sapiens, HCT-116, 72 h): > 50000 nM | IC50 ([3]; Homo sapiens, DLD-1, 72 h): > 50000 nM | IC50 ([4]; Caco-2, 72 h): > 50000 nM | IC50 ([5]; Homo sapiens, HCT-116, 72 h): > 50000 nM | IC50 ([6]; Homo sapiens, DLD-1, 72 h): > 50000 nM | IC50 [11]: 2840 nM | PARP-1 trapping [13]: no effects were detected | IC50 [14]: 5.38 nM | IC50 ([8]; Homo sapiens, HCT-116, 72 h): > 50000 nM
Compound: CNC(=O)C1CC(=O)c2cccc3[nH]c(C)c1c23 (centres unmarked) [X17618, N,2-dimethyl-5-oxo-1,3,4,5-tetrahydrobenzo[cd]indole-3-carboxamide]
cell viability, monotreatment ([1]; HCT116 WT, 72 h, up to 50 µM): no impact | decrease of viability ([2]; HCT116 BRCA2−/−, highest test concentration of 50 µM, 72 h): about 25% | cell viability, monotreatment ([3]; DLD-1 ATRs/s, 72 h): no effects | cell viability, monotreatment ([4]; Caco-2, 72 h, up to 50 µM): no impact on cell viability at all | sensitization towards the anticancer drugs ([4]; Caco-2, IT 10 µM, 5-FU 5 µM, OXA 1 µM): no sensitization towards the anticancer drugs | cell viability, monotreatment ([5]; HCT116 PARP-1+/+, 72 h, up to 50 µM): Neither X17613 nor X17618 decreased cell viability | cell viability in combination with cytostatics ([5]; HCT116 PARP-1+/+, IT 0.5 µM, 5-FU 0.25 µM, OXA 0.5 µM, 72 h, PARPi added 2 h prior): did not affect the cytotoxicity of the anticancer drugs | cell viability, monotreatment ([6]; DLD-1 WT, 72 h): no effects | chromatin-bound PARP-1 (PARP-1 trapping) [12]: No enrichment of PARP-1 in the chromatin fraction | IC50 ([7]; Homo sapiens, HCEC): > 50000 nM | cell viability, monotreatment ([7]; nonmalignant HCEC, up to 50 µM): no effect on HCEC | PAR signal [14]: significant decrease in the PAR signal | cell viability, monotreatment ([8]; HCT116 PARP-1−/−, 72 h, up to 50 µM): Neither X17613 nor X17618 decreased cell viability | cell viability in combination with cytostatics ([8]; HCT116 PARP-1−/−, IT 0.5 µM, 5-FU 0.25 µM, OXA 0.5 µM, 72 h, PARPi added 2 h prior): did not affect the cytotoxicity of the anticancer drugs

IC50 [11]: 482 nM
Compound: Cc1[nH]c2cccc3c2c1C(C(=O)NCc1ccco1)CC3=O (centres unmarked) [X17620, N-(furan-2-ylmethyl)-2-methyl-5-oxo-1,3,4,5-tetrahydrobenzo[cd]indole-3-carboxamide]
PAR formation [14]: no effect on PAR formation

IC50 [11]: 1630 nM | IC50 [14]: 16.7 nM
Compound: Cc1[nH]c2cccc3c2c1C(C(=O)N1CCOCC1)CC3=O (centres unmarked) [X17621, 2-methyl-3-(morpholine-4-carbonyl)-3,4-dihydrobenzo[cd]indol-5(1H)-one]
PAR formation [14]: did not entirely inhibit PAR formation | PAR signal [14]: significant decrease in the PAR signal
